Key:
Type in all cases: tissue-based
Mu-type opioid receptor = Mu-type opioid receptor (Rattus norvegicus, UniProt P33535); experiment: Binding affinity towards Opioid receptor mu 1 using [3H]naloxone as radioligand in rat brain
[1] = biological target: Kappa-type opioid receptor (Rattus norvegicus, UniProt P34975); experiment: Binding affinity towards KOR (Opioid receptor kappa 1) using [3H]CI977 as radioligand in rat brain
[2] = biological target: Delta-type opioid receptor (Rattus norvegicus, UniProt P33533); experiment: Binding affinity towards Opioid receptor delta 1 using [3H]CI-DPDPE as radioligand in rat brain
Delta-type opioid receptor, sequence (P33533 whole entry): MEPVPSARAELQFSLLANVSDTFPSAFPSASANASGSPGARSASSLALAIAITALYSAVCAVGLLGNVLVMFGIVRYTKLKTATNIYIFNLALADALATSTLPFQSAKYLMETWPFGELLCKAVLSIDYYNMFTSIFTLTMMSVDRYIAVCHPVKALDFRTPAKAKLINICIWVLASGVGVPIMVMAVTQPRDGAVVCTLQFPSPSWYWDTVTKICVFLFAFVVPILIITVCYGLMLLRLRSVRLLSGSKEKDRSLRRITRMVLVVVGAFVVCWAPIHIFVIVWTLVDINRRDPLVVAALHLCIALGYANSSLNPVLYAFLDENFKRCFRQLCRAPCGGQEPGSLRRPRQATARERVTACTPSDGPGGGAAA

Mu-type opioid receptor, sequence (P33535 whole entry): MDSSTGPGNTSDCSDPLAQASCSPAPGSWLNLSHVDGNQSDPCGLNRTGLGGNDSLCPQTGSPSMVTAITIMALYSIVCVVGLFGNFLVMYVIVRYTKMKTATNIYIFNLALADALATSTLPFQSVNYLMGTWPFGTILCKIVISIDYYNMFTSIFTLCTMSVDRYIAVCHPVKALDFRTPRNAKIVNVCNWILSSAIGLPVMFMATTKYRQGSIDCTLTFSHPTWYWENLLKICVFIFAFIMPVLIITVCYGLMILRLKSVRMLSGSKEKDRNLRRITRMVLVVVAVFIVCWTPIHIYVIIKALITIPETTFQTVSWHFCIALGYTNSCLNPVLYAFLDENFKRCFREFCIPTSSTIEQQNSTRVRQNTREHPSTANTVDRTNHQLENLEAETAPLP
Kappa-type opioid receptor, sequence (P34975 whole entry): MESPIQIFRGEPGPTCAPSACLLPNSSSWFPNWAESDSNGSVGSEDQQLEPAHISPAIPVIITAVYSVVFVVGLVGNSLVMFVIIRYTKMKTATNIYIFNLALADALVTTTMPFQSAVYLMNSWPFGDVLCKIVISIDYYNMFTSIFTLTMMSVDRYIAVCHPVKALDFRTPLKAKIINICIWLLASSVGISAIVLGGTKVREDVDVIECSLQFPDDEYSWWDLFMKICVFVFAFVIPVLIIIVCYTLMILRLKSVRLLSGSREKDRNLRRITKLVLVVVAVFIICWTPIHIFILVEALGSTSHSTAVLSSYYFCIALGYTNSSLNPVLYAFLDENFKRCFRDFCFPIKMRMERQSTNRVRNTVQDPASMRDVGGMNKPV

Question: What does the source list for `CN1CC2C(=O)C(C1)C(c1ccccn1)N(C)C2c1ccccn1` (stereo not drawn)?
Answer: Ki (Mu-type opioid receptor): > 1000 nM; Ki [1]: 15 nM; Ki [2]: > 10000 nM

Source: ChEMBL document CHEMBL1136754, “Mechanism of action of the diazabicyclononanone-type kappa-agonists” (J Med Chem, 2003)
